Measurements taken from patent US7705028B2, “Farnesoid X receptor agonists” (GlaxoSmithKline LLC, priority 2005, dated 2010).
Where a name gives a salt, the structure may show the parent alone. Read-outs that look alike come from different tables or passages of the source.

Legend:
[1] = target: T1, human FXR ligand binding domain (LBD) (Homo sapiens, UniProt Q96RI1); experiment: FXR Cofactor Binding Assay (TRF, SRC-1 peptide recruitment); type: biochemical; settings: read-out: Activity (pEC50) (converted)
T1 construct: polyhistidine (pRSET-A vector leader) (N); made in house; host or cells: E. coli BL21 (DE3), pRSET-A vector
T1 sequence (Q96RI1 237-472 isoform Q96RI1-2): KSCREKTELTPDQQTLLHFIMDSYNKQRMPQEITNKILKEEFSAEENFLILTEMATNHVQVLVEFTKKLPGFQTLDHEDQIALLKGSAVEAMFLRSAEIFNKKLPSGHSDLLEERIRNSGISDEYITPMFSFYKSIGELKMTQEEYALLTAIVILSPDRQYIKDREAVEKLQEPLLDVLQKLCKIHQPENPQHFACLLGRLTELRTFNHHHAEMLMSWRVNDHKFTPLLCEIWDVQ
T1 sequence (Q15788 676-700 partner): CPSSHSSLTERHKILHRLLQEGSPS
Text: Determination of a ligand mediated cofactor peptide interaction to quantify ligand binding to the nuclear receptor Farnasoid X Receptor (FXR). The method measures the ability of putative ligands to modulate the interaction between the purified bacterial expressed human FXR ligand binding domain (LBD) and a synthetic biotinylated peptide based on residues 676-700 of steroid receptor coactivator-1 (SRC-1) (LXXLL-containing domain-2 where L is the amino acid leucine and X indicates any other amino acid (LCD2), 676-700). The sequence of the SRC-1 peptide used is as published in Iannone, M. A. et al, Cytometry 44:326-337 (2001) where the N-terminus was biotinylated (B) and the C-terminus was amidated. Detection of the associated complex was measured by time resolved fluorescence (TRF). The purified LBD of FXR was labeled with biotin then mixed with stoichiometric amounts of allophycocyanin (APC) labeled streptavidin (Molecular Probes). The biotinylated peptide was then mixed with a ½ stoichiometric amount of europium labeled streptavidin (Wallac Inc). Each was then blocked with a 5 fold excess of biotin and allowed to equilibrate for 15 min. Equimolar amounts of receptor and peptide were mixed together and were allowed to equilibrate for at least 30 min prior to the addition to either a variable or constant concentrations of the sample for which the affinity is to be determined. After equilibration, the time-resolved fluorescent signal was quantitated using a fluorescent plate reader. The affinity of the test compound was estimated from a plot of fluorescence versus concentration of test compound added.
A basal level of FXR: peptide formation is observed in the absence of added ligand. Ligands that promote the complex formation induce a concentration-dependent increase in time-resolved fluorescent signal. Compounds which bind equally well to both non-/un-complexed FXR and to the FXR: peptide complex would be expected to give no change in signal, whereas ligands which bind preferentially to the non-/un-complexed receptor would be expected to induce a concentration-dependent decrease in the observed signal.
Human FXR Ligand Binding Domain (FXR LBD) was expressed in E. coli strain BL21 (DE3) as an amino-terminal polyhistidine tagged fusion protein. Expression was under the control of an isopropyl-β-D-thiogalactopyranoside (IPTG) inducible T7 promoter. DNA encoding this recombinant protein is subcloned into the pRSET-A expression vector (Invitrogen). The coding sequence of Human FXR LBD was derived from Genbank accession number U 68233 (amino acids 237 to 472).
Ten-liter fermentation batches were grown in Rich PO4 media with 0.1 mg/mL Ampicillin at 25° C. for 12 hours, cooled to 9° C. and held at that temperature for 36 hours to a density of OD600=14. At this cell density, 0.25 mM IPTG is added and induction proceeded for 24 hours at 9° C., to a final OD600=16. Cells are harvested by centrifugation (20 minutes, 3500× gravity, 4° C.), and concentrated cell slurries were stored in phosphate buffered saline (PBS) at […].
Routinely, 30-40 g cell paste (equivalent to 2-3 liters of the fermentation batch) was resuspended in 200-250 mL Tris buffered saline (TBS), pH 7.2 (25 mM Tris-Hydroxymethylamino methane (Tris), 150 mM NaCl). Cells were lysed by passing 3 times through a French Press and cell debris was removed by centrifugation (30 minutes, 20,000× gravity, 4° C.). The cleared supernatant was filtered through course pre-filters, and TBS, pH 7.2, 500 mM imidazole was added to obtain a final imidazole concentration of 50 mM. This lysate was loaded onto a column (6×8 cm) packed with Sepharose [Ni^++ charged] Chelation resin (Pharmacia) and pre-equilibrated with TBS pH 7.2/50 mM imidazole. After washing to baseline absorbance with equilibration buffer, the column was washed with one column volume of TBS pH 7.2 containing 90 mM imidazole. FXR LBD was eluted directly with 365 mM imidazole. […]

[2] = test system: hepatic stellate cells (HSC); settings: cultured HSCs; cited from earlier work
[3] = test system: rodent models of hepatic fibrosis; settings: multiple rodent models; cited from earlier work
[4] = test system: high-fat diet induced insulin resistant, glucose intolerant, and obese mouse model; experiment: High-fat diet induced insulin resistant, glucose intolerant, obese mouse model; type: in vivo; settings: C57BL mice, 100 mg/kg twice a day orally
Text: Compounds of formula (I) are also useful for the treatment of diabetes mellitus in a subject, such as a mammal, particularly a human. For example, the compounds of formula (I) are useful for the treatment of type 2 diabetes. The effects of an FXR agonist, GW4064, on body weight, glucose tolerance, serum glucose, serum insulin, serum triglyceride, and liver triglyceride contents via oral administration have been observed in an high-fat diet induced insulin resistant, glucose intolerant, and obese mouse model. Male 20 to 25 g C57BL mice (Charles River, Indianapolis, Ind.) were housed at 72° F. and 50% relative humidity with a 12 h light and dark cycle and fed with standard rodent chow (Purina 5001, Harlan Teklad, Indianapolis, Ind.) or a high-fat diet (TD93075, Harlan Teklad, Indianapolis, Ind.) for seven weeks. After two weeks, mice on high-fat diet were randomized to vehicle or treatment groups. There were no significant difference in body weight, body fat mass, serum glucose and insulin, and area under the curve (AUC) for glucose in glucose tolerance test (GTT) between the vehicle group and the treatment group. Starting from the fourth week, mice were given either vehicle or GW4064 (100 mg/kg) twice a day orally. Mice on the standard rodent chow were also given vehicle as a control. At the end of the third week of compound treatment, a GTT was performed and body composition was measured using the quantitative magnetic resonance (QMR) method. […] Blood glucose during GTT was measured using Bayer Glucometer Elite® XL. Serum chemistry levels were measured using the Instrumentation Laboratory Ilab600™ clinical chemistry analyzer (Instrumentation Laboratory, Boston, Mass.). Liver triglyceride contents were measured using the methanolic-KOH saponification method and a triglyceride assay kit (GPO-TRINDER, Sigma Diagnostics, St. Louis, Mo.). […] It is believed that the result may have been due to a decrease in fat mass.

[5] = test system: bile duct-ligated mouse model of cholestasis and intestinal bacterial overgrowth; settings: cited from earlier work
[6] = test system: mice on a lithogenic diet; settings: cited from earlier work
[7] = protocol †: 0.1 μL of test compound, final assay volume 10 μL
[8] = protocol ⋄: 0.5 μL of test compound, final assay volume 25 μL

Structure (SMILES): CC(C)c1onc(-c2c(Cl)cccc2Cl)c1COc1ccc(-c2ccc3c(C(=O)O)cccc3c2)cc1 [Example 1, 6-[4-({[3-(2,6-Dichlorophenyl)-5-(1-methylethyl)-4-isoxazolyl]methyl}oxy)phenyl]-1-naphthoic Acid Sodium Salt]
- EC50 [1, 7]: < 0.1 µM
- EC50 [1, 8]: < 0.1 µM

Structure (SMILES): CC(C)c1onc(-c2c(Cl)cccc2Cl)c1COc1ccc(-c2ccc3c(C(=O)O)cccc3c2)c(Cl)c1 [Example 2, 6-[2-Chloro-4-({[3-(2,6-dichlorophenyl)-5-(1-methylethyl)-4-isoxazolyl]methyl}oxy)phenyl]-1-naphthalenecarboxylic acid]
- EC50 [1, 7]: 0.102 to 1 µM

Structure (SMILES): O=C(O)c1cccc2cc(-c3ccc(OCc4c(-c5c(Cl)cccc5Cl)noc4C4CCC4)cc3)ccc12 [Example 3, 6-[4-({[5-cyclobutyl-3-(2,6-dichlorophenyl)-4-isoxazolyl]methyl}oxy)phenyl]-1-naphthalenecarboxylic acid]
- EC50 [1, 7]: 0.102 to 1 µM

Structure (SMILES): CC(C)c1onc(Cc2c(Cl)cccc2Cl)c1COc1ccc(-c2ccc3c(C(=O)O)cccc3c2)cc1 [Example 4, 6-[4-({[3-[(2,6-dichlorophenyl)methyl]-5-(1-methylethyl)-4-isoxazolyl]methyl}oxy)phenyl]-1-naphthalenecarboxylic acid]
- EC50 [1, 8]: 0.102 to 1 µM

Structure (SMILES): CC(C)c1onc(CCc2c(Cl)cccc2Cl)c1COc1ccc(-c2ccc3c(C(=O)O)cccc3c2)cc1 [Example 5, 6-[4-({[3-[2-(2,6-dichlorophenyl)ethyl]-5-(1-methylethyl)-4-isoxazolyl]methyl}oxy)phenyl]-1-naphthalenecarboxylic acid]
- EC50 [1, 7]: 0.102 to 1 µM
- EC50 [1, 8]: < 0.1 µM

Structure (SMILES): CC(C)c1onc(-c2c(Cl)cccc2Cl)c1COc1ccc(-c2ccc3cc(C(=O)O)ccc3c2)cc1 [Example 6, 6-(4-{[3-(2,6-dichlorophenyl)-5-isopropylisoxazol-4-yl]methoxy}phenyl)-2-naphthoic acid]
- EC50 [1, 7]: 0.102 to 1 µM

Structure (SMILES): CC[C@H]1[C@@H](O)[C@@H]2[C@H](CC[C@]3(C)[C@@H]([C@H](C)CCC(=O)O)CC[C@@H]23)[C@@]2(C)CC[C@@H](O)C[C@@H]12 [Example 6EtCDCA, 6-ethyl-chenodeoxycholic acid]
- expression of fibrotic markers such as α-smooth muscle actin and α1(I)collagen [2]: decreased expression of fibrotic markers
- hepatic fibrosis [3]: prevent development and promote resolution of hepatic fibrosis

Structure (SMILES): CC(C)c1onc(-c2c(Cl)cccc2Cl)c1COc1ccc(-c2ccc3ccc(C(=O)O)cc3c2)cc1 [Example 8, 7-[4-({[3-(2,6-dichlorophenyl)-5-(1-methylethyl)-4-isoxazolyl]methyl}oxy)phenyl]-2-naphthalenecarboxylic acid]
- EC50 [1, 7]: 0.102 to 1 µM

Structure (SMILES): CC(C)c1onc(CCc2c(Cl)cccc2Cl)c1COc1ccc(-c2ccc3ccc(C(=O)O)cc3c2)cc1 [Example 9, 7-[4-({[3-[2-(2,6-dichlorophenyl)ethyl]-5-(1-methylethyl)-4-isoxazolyl]methyl}oxy)phenyl]-2-naphthalenecarboxylic acid]
- EC50 [1, 7]: 0.102 to 1 µM

Structure (SMILES): CC(C)c1onc(-c2c(Cl)cccc2Cl)c1COc1ccc(-c2ccc3cccc(C(=O)O)c3c2)cc1 [Example 10, 7-[4-({[3-(2,6-dichlorophenyl)-5-(1-methylethyl)-4-isoxazolyl]methyl}oxy)phenyl]-1-naphthalenecarboxylic acid]
- EC50 [1, 7]: 1.02 to 10 µM

Structure (SMILES): CC(C)c1onc(CCc2c(Cl)cccc2Cl)c1COc1ccc(-c2ccc3cccc(C(=O)O)c3c2)cc1 [Example 11, 7-[4-({[3-[2-(2,6-dichlorophenyl)ethyl]-5-(1-methylethyl)-4-isoxazolyl]methyl}oxy)phenyl]-1-naphthalenecarboxylic acid]
- EC50 [1, 7]: 1.02 to 10 µM

Structure (SMILES): CC(C)c1onc(-c2c(Cl)cccc2Cl)c1COc1ccc(-c2ccc3c(C(N)=O)cccc3c2)cc1 [Example 12a, 6-[4-({[3-(2,6-dichlorophenyl)-5-(1-methylethyl)-4-isoxazolyl]methyl}oxy)phenyl]-1-naphthalenecarboxamide]
- EC50 [1, 8]: 1.02 to 10 µM

Structure (SMILES): CC(C)c1onc(-c2c(Cl)cccc2Cl)c1COc1ccc(-c2ccc3c(C#N)cccc3c2)cc1 [Example 12b, 6-[4-({[3-(2,6-dichlorophenyl)-5-(1-methylethyl)-4-isoxazolyl]methyl}oxy)phenyl]-1-naphthalenecarbonitrile]
- EC50 [1, 8]: 1.02 to 10 µM

Structure (SMILES): CC(C)c1onc(-c2c(Cl)cccc2Cl)c1COc1ccc(-c2ccc3c(-c4nn[nH]n4)cccc3c2)cc1 [Example 12c, 5-{6-[4-({[3-(2,6-dichlorophenyl)-5-(1-methylethyl)-4-isoxazolyl]methyl}oxy)phenyl]-1-naphthalenyl}-1H-tetrazole]
- EC50 [1, 8]: 0.102 to 1 µM

Structure (SMILES): CC(C)c1onc(-c2c(Cl)cccc2Cl)c1COc1ccc(/C=C/c2cccc(C(=O)O)c2)c(Cl)c1 [GW4064]
- high-fat diet induced body weight gain [4]: reduced the high-fat diet induced body weight gain
- glucose tolerance (GTT) ([4]; end of third week of treatment): appeared to improve glucose tolerance
- liver triglyceride content ([4]; fourth week of treatment): reduced liver triglyceride content
- serum glucose ([4]; fourth week of treatment): decreased
- serum insulin ([4]; fourth week of treatment): decreased
- serum triglyceride ([4]; fourth week of treatment): decreased
- effect on translocation of bacteria in FXR null mice ([5]; FXR null mice): lost in FXR null mice
- bacterial overgrowth ([5]; bile duct-ligated mice): decreased bacterial overgrowth
- mucosal barrier ([5]; bile duct-ligated mice): improved mucosal barrier
- translocation of bacteria to mesenteric lymph nodes ([5]; bile duct-ligated mice): decreased translocation of bacteria to mesenteric lymph nodes
- effect on cholesterol crystal formation in FXR null mice ([6]; FXR null mice): lost in FXR null mice
- formation of cholesterol crystals in the bile ([6]; mice on a lithogenic diet): prevented the formation of cholesterol crystals in the bile
